# Source: US8110543B2, “Anti-invasive and anti-angiogenic compositions” (Angstrom Pharmaceuticals, Inc., priority 1997, dated 2012)
# Test system: 3LL
# Assay: 3LL metastasis model, related peptides
# Design: species or system mice
# Conditions: mouse, in vivo
# Text: This model has been utilized by a number of investigators. See, for example, Gorelik, E. et al., J. Nat'l. Canc. Inst. 65:1257-1264 (1980); Gorelik, E. et al., Rec. Results Canc Res. 75:20-28 (1980); Isakov, N. et al., Invasion Metas. 2:12-32 (1982); Talmadge J. E. et al., J. Nat'l. Canc. Inst. 69:975-980 (1982); Hilgard, P. et al, Br. J. Cancer 35:78-86 (1977)). Test mice are male C57BL/6 mice, 2-3 months old. Following sc, im, or intra-footpad implantation, this tumor produces metastases, preferentially in the lungs. With some lines of the tumor, the primary tumor exerts anti-metastatic effects and must first be excised before study of the metastatic phase (see also U.S. Pat. No. 5,639,725).
# Single-cell suspensions are prepared from solid tumors by treating minced tumor tissue with a solution of 0.3% trypsin. Cells are washed 3 times with PBS (pH 7.4) and suspended in PBS. Viability of the 3LL cells prepared in this way is generally about 95-99% (by trypan blue dye exclusion). Viable tumor cells (3×10^4-5×10^6) suspended in 0.05 ml PBS are injected subcutaneously, either in the dorsal region or into one hind foot pad of C57BL/6 mice. Visible tumors appear after 3-4 days after dorsal sc injection of 10^6 cells. The day of tumor appearance and the diameters of established tumors are measured by caliper every two days.
# The treatment is given as one or two doses of peptide or derivative, per week. In another embodiment, the peptide is delivered by osmotic minipump.
# Lungs are removed and weighed. Lungs are fixed in Bouin's solution and the number of visible metastases is recorded. The diameters of the metastases are also measured using a binocular stereoscope equipped with a micrometer-containing ocular under 8× magnification. On the basis of the recorded diameters, it is possible to calculate the volume of each metastasis. To determine the total volume of metastases per lung, the mean number of visible metastases is multiplied by the mean volume of metastases. To further determine metastatic growth, it is possible to measure incorporation of ^125IdUrd into lung cells (Thakur, M. L. et al., J. Lab. Clin. Med. 89:217-228 (1977). Ten days following tumor amputation, 25 μg of fluorodeoxyuridine is inoculated into the peritoneums of tumor-bearing (and, if used, tumor-resected mice). After 30 min, mice are given 1 μCi of ^125IdUrd (iododeoxyuridine). One day later, lungs and spleens are removed and weighed, and a degree of ^125IdUrd incorporation is measured using a gamma counter.
# In addition to Å6, other related peptide compounds described above are tested for efficacy in vivo in the 3LL model (as provided above) as well as the PC-3 model. PC-3 cells transfected with the gene encoding the enzyme chloramphenicol acetyl-transferase (CAT) are inoculated into mice i.v. at doses of 1×10^6 cells per mouse. These mice are implanted with a minipump, as above, which dispenses 100 mg/kg/day of the peptide or vehicle over a period of 14 or 21 days. At termination of treatment, the animals are euthanized and the tumor marker probe is assayed in regional lymph nodes, femurs, lungs, and brain.
substance,measurement,value
"Ac-KPSSPPEE-NH2 [Å6, CH3CO-Lys-Pro-Ser-Ser-Pro-Pro-Glu-Glu-NH2]","metastasis, 3LL model",markedly inhibited
